# Laboratory results reported in paper PMC2747801 (European journal of pharmaceutical sciences : official …, 2009).
# Like-named read-outs stand apart in the source and are kept apart here.
# Columns and labels:
# [1] = cited from earlier work
# P-glycoprotein (Pgp) [2] = test: Pgp effect: ratio of Pgp-deficient to wild-type uptake clearance; settings: for Pgp Effect: ratio of Pgp-deficient Kin to wild-type Kin, CF-1 mice
# [3] = for Pgp Mutant Kin / logPS(obs): male, pH 7.4; for logPS(obs) / brain uptake clearance: in vivo
# [4] = cited from earlier work; remark: listed apart in the source
# [5] = PAMPA intrinsic permeability, cited from earlier work
# [6] = male, CF-1, mouse, in vivo, 1 µM, pH 7.4
# P-glycoprotein (Pgp) [7] = settings: male, CF-1, mouse, not told, pH 7.4
# [8] = rodent and comment not printed ref Fernstermacher 1989; cited from earlier work
# [9] = rat, 5-50uM self-inhibition, training set ref Summerfield et al. 2007
# [10] = rat, not saturable ref Parepally et al. 2006
# [11] = ref Avdeef et al. 2004, Ruell et al. 2004
compound,measurement,setting,value
CCCN1C[C@H](C)N([C@H](c2ccc(C(=O)N(CC)CC)cc2)c2cccc(OC)c2)C[C@H]1C [SNC121],logPS(obs),"[1]; mouse, in vivo",−1.44 mL/g/s
same,Pgp effect ratios,P-glycoprotein (Pgp) [2]; compounds with down-step in rank classification for wild-type PS values (Fig. 3),8.6
same,logPo^PAMPA,,−1.24
N[C@@H](Cc1ccc(F)cc1)C(=O)O [p-F-L-phenylalanine],Pgp Effect,P-glycoprotein (Pgp) [2],1.1
CN(C)CCC=C1c2ccccc2CCc2ccccc21 [amitriptyline],Pgp Mutant Kin,"[3]; CF-1, mouse, 1 µM",408 mL/100g/min
same,logPS(obs),"[3]; CF-1, mouse, 1 µM",−0.66 mL/g/s
same,brain uptake clearance,[3]; mouse,> 255 mL/100 g/min
same,Pgp Effect,P-glycoprotein (Pgp) [2],1.2
same,logPS(obs),[4]; [9],−1.05 mL/g/s
same,logPo^PAMPA,[5]; ref Avdeef et al. 2006,1.30
same,Wild-Type Kin,[6],335 mL/100g/min
NC(=O)N1c2ccccc2C=Cc2ccccc21 [carbamazepine],Pgp Mutant Kin,"[3]; CF-1, mouse, 1 µM",184 mL/100g/min
same,logPS(obs),"[3]; CF-1, mouse, 1 µM",−1.26 mL/g/s
same,Pgp Effect,P-glycoprotein (Pgp) [2],1.1
same,logPS(obs),[4]; [9],−1.75 mL/g/s
same,Wild-Type Kin,[6],173 mL/100g/min
same,logPo^PAMPA,,−3.73
COc1cc([C@@H]2c3cc4c(cc3[C@@H](O[C@@H]3O[C@@H]5CO[C@@H](C)O[C@H]5[C@H](O)[C@H]3O)[C@H]3COC(=O)[C@H]23)OCO4)cc(OC)c1O [etoposide],logPS(obs),"[1]; mouse, mdr1a(−/−), footnote x ref Cisternino et al. 2003",−3.91 mL/g/s
same,logPo^PAMPA,,−5.22
CCOC(=O)C1(c2ccccc2)CCN(C)CC1 [meperidine],logPS(obs),"[1]; mouse, in vivo",−1.28 mL/g/s
same,logPo^PAMPA,,0.79
COc1ccc(Cl)cc1C(=O)NCCc1ccc(S(=O)(=O)NC(=O)NC2CCCCC2)cc1 [glibenclamide],logPS(obs),[1]; mouse ref Murakami et al. 2000,−3.27 mL/g/s
same,logPS(obs),[4]; rat ref Murakami et al. 2000,−2.77 mL/g/s
same,logPo^PAMPA,[5]; ref Bendels et al. 2006,−2.54
CC(C)(C)NC(=O)[C@@H]1C[C@@H]2CCCC[C@@H]2CN1C[C@@H](O)[C@H](Cc1ccccc1)NC(=O)[C@H](CC(N)=O)NC(=O)c1ccc2ccccc2n1 [saquinavir],Pgp Mutant Kin,"[3]; CF-1, mouse, 1 µM",11 mL/100g/min
same,logPS(obs),"[3]; CF-1, mouse, 1 µM",−2.73 mL/g/s
same,Wild-Type Kin,[6],2.9 mL/100g/min
same,logPo^PAMPA,,−3.69
NCC1(CC(=O)O)CCCCC1 [gabapentin],logPS(obs),[3]; mouse,−2.34 mL/g/s
same,Pgp Mutant Kin,[3]; mouse,26 mL/100g/min
same,Pgp Effect,P-glycoprotein (Pgp) [7],1.7
same,logPS(obs),"[4]; rat, in vivo",−2.56 mL/g/s
same,logPo^PAMPA,,−3.36
CCC12CCN(CC3(O)CC3)C(Cc3ccc(O)cc31)C2(C)C (stereo not drawn) [bremazocine],logPS(obs),"[1]; mouse, in vivo",−1.89 mL/g/s
same,logPo^PAMPA,,−1.49
CCCN(CCC)S(=O)(=O)c1ccc(C(=O)O)cc1 [probenecid],Pgp Mutant Kin,"[3]; CF-1, mouse, 1 µM",0.098 mL/100g/min
same,logPS(obs),"[3]; CF-1, mouse, 1 µM",−4.79 mL/g/s
same,Pgp Effect,P-glycoprotein (Pgp) [2],1.4
same,logPo^PAMPA,[5]; ref Ruell et al. 2004,−1.83
same,Wild-Type Kin,[6],0.069 mL/100g/min
CC(C)(C)NC(=O)[C@@H]1CN(Cc2cccnc2)CCN1C[C@@H](O)C[C@@H](Cc1ccccc1)C(=O)N[C@H]1c2ccccc2C[C@H]1O [indinavir],Wild-Type Kin,[6],0.52 mL/100g/min
CN(C)CCC=C1c2ccccc2COc2ccccc21 [doxepin],logPS(obs),[4]; [9],−1.31 mL/g/s
same,logPo^PAMPA,[5]; ref Ruell et al. 2004,0.44
COc1ccc2c(c1)c(CC(=O)O)c(C)n2C(=O)c1ccc(Cl)cc1 [indomethacin],logPS(obs),[4]; [10],−2.19 mL/g/s
same,logPo^PAMPA,[5]; [11],−1.65
Oc1ccc2c3c1O[C@H]1c4[nH]c5ccccc5c4C[C@@]4(O)[C@@H](C2)N(CC2CC2)CC[C@]314 [naltrindole],logPS(obs),"[1]; mouse, in vivo",−1.98 mL/g/s
same,logPo^PAMPA,,−0.94
CN1CCN(C2=Nc3cc(Cl)ccc3Nc3ccccc32)CC1 [clozapine],Pgp Mutant Kin,"[3]; CF-1, mouse, 1 µM",90 mL/100g/min
same,logPS(obs),"[3]; CF-1, mouse, 1 µM",−1.73 mL/g/s
same,Wild-Type Kin,[6],118 mL/100g/min
same,logPo^PAMPA,,−0.39
CC(=O)CC(c1ccccc1)c1c(O)c2ccccc2oc1=O (stereo not drawn) [warfarin],logPS(obs),"[1]; mouse, in vivo",−2.10 mL/g/s
same,logPS(obs),"[4]; rat, in vivo",−1.99 mL/g/s
O=C1NC(=O)C(c2ccccc2)(c2ccccc2)N1 [phenytoin],logPS(obs),[8],−2.30 mL/g/s
same,logPS(obs),[4]; rat ref Liu et al. 2004,−2.20 mL/g/s
same,logPS(obs),[4]; [9],−2.07 mL/g/s
same,logPo^PAMPA,[5]; ref Ruell et al. 2004,−4.32
N[C@H](Cc1ccc(F)cc1)C(=O)O [p-F-D-phenylalanine],Pgp Effect,P-glycoprotein (Pgp) [2],1.1
O=C1CC2(CCCC2)CC(=O)N1CCCCN1CCN(c2ncccn2)CC1 [buspirone],Pgp Mutant Kin,"[3]; CF-1, mouse, 1 µM",341 mL/100g/min
same,Pgp Effect,P-glycoprotein (Pgp) [2],1.0
same,Wild-Type Kin,[6],325 mL/100g/min
COc1ccc(CCN2CCC(Nc3nc4ccccc4n3Cc3ccc(F)cc3)CC2)cc1 [astemizole],Pgp Mutant Kin,"[3]; CF-1, mouse, 1 µM",123 mL/100g/min
same,logPS(obs),"[3]; CF-1, mouse, 1 µM",−1.55 mL/g/s
same,Pgp Effect,P-glycoprotein (Pgp) [7],1.1
same,logPo^PAMPA,[5]; ref Bendels et al. 2006,1.00
same,Wild-Type Kin,[6],112 mL/100g/min
CC[C@]1(O)C[C@@H]2CN(CCc3c([nH]c4ccccc34)[C@@](C(=O)OC)(c3cc4c(cc3OC)N(C)[C@H]3[C@@](O)(C(=O)OC)[C@H](OC(C)=O)[C@]5(CC)C=CCN6CC[C@]43[C@@H]65)C2)C1 [vinblastine],logPS(obs),[1]; mouse ref Murakami et al. 2000,−3.32 mL/g/s
same,logPS(obs),"[1]; mouse, GF120918, footnote v ref Cisternino et al. 2004",−3.25 mL/g/s
same,logPS(obs),"[1]; mouse, mdr1a(−/−)+GF120918 ref Cisternino et al. 2001",−3.12 mL/g/s
same,logPS(obs),[4]; rat ref Greig et al. 1990,−3.27 mL/g/s
same,logPS(obs),"[4]; rat, PSC833 ref Cisternino et al. 2003",−3.36 mL/g/s
same,logPo^PAMPA,,−0.42
CNCCCC12CCC(c3ccccc31)c1ccccc12 [maprotiline],logPS(obs),[4]; [9],−1.37 mL/g/s
same,logPo^PAMPA,[5]; ref Ruell et al. 2004,1.99
CC(C)[C@H](NC(=O)[C@H](CCC(=O)O)NC(=O)[C@H](Cc1ccccc1)NC(=O)[C@@H](C)NC(=O)[C@@H](N)Cc1ccc(O)cc1)C(=O)N[C@H](C(=O)NCC(N)=O)C(C)C [deltorphin II],logPS(obs),"[1]; mouse, in vivo",−4.36 mL/g/s
same,logPo^PAMPA,,−6.37
CN/C(=N/CCSCc1nc[nH]c1C)NC#N [cimetidine],logPS(obs),[1]; mouse ref Murakami et al. 2000,−4.10 mL/g/s
same,logPS(obs),[4]; rat ref Murakami et al. 2000,−4.05 mL/g/s
same,logPo^PAMPA,[5]; ref Avdeef et al. 2005,−6.20
CN[C@H]1CC[C@@H](c2ccc(Cl)c(Cl)c2)c2ccccc21 [sertraline],Pgp Effect,P-glycoprotein (Pgp) [2],1.0
same,logPo^PAMPA,,2.10
CN(C)CCCN1c2ccccc2Sc2ccc(Cl)cc21 [chlorpromazine],Pgp Mutant Kin,"[3]; CF-1, mouse, 1 µM",295 mL/100g/min
same,logPS(obs),"[3]; CF-1, mouse, 1 µM",−1.08 mL/g/s
same,brain uptake clearance,[3]; mouse,> 255 mL/100 g/min
same,Pgp Effect,P-glycoprotein (Pgp) [2],1.0
same,logPS(obs),[4]; [9],−1.20 mL/g/s
same,logPo^PAMPA,[5]; [11],1.62
same,Wild-Type Kin,[6],300 mL/100g/min
CC(C)(C)c1ccc(C(O)CCCN2CCC(C(O)(c3ccccc3)c3ccccc3)CC2)cc1 (stereo not drawn) [terfenadine],Pgp Mutant Kin,"[3]; CF-1, mouse, 1 µM",129 mL/100g/min
same,logPS(obs),"[3]; CF-1, mouse, 1 µM",−1.52 mL/g/s
same,logPo^PAMPA,"[5]; ref Ruell et al. 2004, Avdeef et al. 2007",2.63
same,Wild-Type Kin,[6],126 mL/100g/min
COc1ccc2c3c1O[C@H]1C[C@@H](O)C=C[C@@]31CCN(C)C2 [galanthamine],logPS(obs),[3]; mouse,−2.46 mL/g/s
same,Pgp Mutant Kin,[3]; mouse,20 mL/100g/min
same,Pgp Effect,P-glycoprotein (Pgp) [7],1.1
same,logPo^PAMPA,,−3.15
CC(C(=O)O)c1ccc(-c2ccccc2)c(F)c1 (stereo not drawn) [flurbiprofen],logPS(obs),[4]; [10],−1.80 mL/g/s
same,logPo^PAMPA,[5]; ref Ruell et al. 2004,−1.78
Cn1c(=O)c2[nH]cnc2n(C)c1=O [theophylline],logPS(obs),[1]; mouse ref Murakami et al. 2000,−3.26 mL/g/s
same,logPS(obs),[4]; rat ref Liu et al. 2004,−2.90 mL/g/s
same,logPS(obs),[4]; rat ref Murakami et al. 2000,−2.81 mL/g/s
same,logPo^PAMPA,[5]; ref Avdeef et al. 2006,−5.99
